According to US9783511B2, “Carbamate benzoxazine propionic acids and acid derivatives for modulation of RORgamma activity and the treatment of disease” (Merck Sharp & Dohme Corp., priority 2013, dated 2017):

What follows are compounds tested against human RORgammaT-Ligand Binding Domain (LBD) (Homo sapiens (Human), UniProt P51449) (assay: RORγ-Ligand Binding Domain TR-FRET Assay (co-activator peptide SRC1_2 recruitment)). Conditions: HIS-tagged RORγ-LBD 3 nM, biotinylated SRC1 LXXLL peptide 100 nM, incubated overnight at 4° C., 665 nm/615 nm ratio.
Type: biochemical
Excerpt: Activation of RORgammaT activity can be measured using, e.g., a biochemical TR-FRET assay. In such an assay, interaction of cofactor-derived peptides with human RORgammaT-Ligand Binding Domain (LBD) can be measured.
To identify novel antagonists of RORgammaT, an assay was developed which employs the interaction of RORgammaT with its co-activator peptide SRC1_2. […] The RORγ-Ligand Binding Domain TR-FRET Assay was run according to the following protocol.
HIS-tagged RORγ-LBD protein was recombinantly expressed in Escherichia coli. The RORγ-LBD protein was purified by Ni^2+-affinity resin. Purified protein was then diluted in assay buffer (50 mM Tris pH 7.0, 50 mM KCl, 1 mM EDTA, 0.1 mM DTT, 100 μg/mL bovine serum albumin, delipidated) to obtain a RORγ-LBD final concentration of 3 nM.
Compounds to be tested were injected to the 384-well assay plate using Acoustic Droplet Ejection technology by Echo 550 liquid handler (Labcyte, CA).

Chain of human RORgammaT-Ligand Binding Domain (LBD) (P51449 269-508): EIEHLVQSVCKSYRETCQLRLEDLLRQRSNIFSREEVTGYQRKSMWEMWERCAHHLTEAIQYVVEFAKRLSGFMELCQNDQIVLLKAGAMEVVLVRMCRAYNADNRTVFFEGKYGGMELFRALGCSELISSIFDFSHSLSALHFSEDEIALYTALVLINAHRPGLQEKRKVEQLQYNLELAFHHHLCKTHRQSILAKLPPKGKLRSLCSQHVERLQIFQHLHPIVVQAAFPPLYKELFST

IC50 | Structure (SMILES)
10.4 nM | COc1cc(S(=O)(=O)N2C[C@H](CC(C)(CO)C(=O)O)Oc3ccc(NC(=O)OC(C)(C)C(F)(F)F)cc32)ccc1F (single isomer, unassigned) [Example 18L, (S or R)-3-((S)-4-((4-fluoro-3-methoxyphenyl)sulfonyl)-6-((((1,1,1-trifluoro-2-methylpropan-2-yl)oxy)carbonyl)amino)-3,4-dihydro-2H-benzo[b][1,4]oxazin-2-yl)-2-(hydroxymethyl)-2-methylpropanoic acid]
28 nM | CC(C)(OC(=O)Nc1ccc2c(c1)N(S(=O)(=O)c1ccc(F)c(C(F)(F)F)c1)C[C@H]([C@@H](CC(=O)O)C1CC1)O2)C(F)(F)F (single isomer, unassigned) [Example 21A, (S or R)-3-cyclopropyl-3-((S)-4-((4-fluoro-3-(trifluoromethyl)phenyl)sulfonyl)-6-((((1,1,1-trifluoro-2-methylpropan-2-yl)oxy)carbonyl)amino)-3,4-dihydro-2H-benzo[b][1,4]oxazin-2-yl)propanoic acid]
30.4 nM | CC(C)(OC(=O)Nc1ccc2c(c1)N(S(=O)(=O)c1ccc(F)c(C(F)(F)F)c1)C[C@H]([C@H](CC(=O)O)C1CC1)O2)C(F)(F)F (single isomer, unassigned) [Example 21C, (S or R)-3-cyclopropyl-3-((S)-4-((4-fluoro-3-(trifluoromethyl)phenyl)sulfonyl)-6-((((1,1,1-trifluoro-2-methylpropan-2-yl)oxy)carbonyl)amino)-3,4-dihydro-2H-benzo[b][1,4]oxazin-2-yl)propanoic acid]
47.1 nM | Cc1ccc(S(=O)(=O)N2C[C@H]([C@H]3C[C@H]3C(=O)O)Oc3ccc(NC(=O)OC(C)(C)C(F)(F)F)cc32)cc1 (single isomer, unassigned) [Example 22E, (1S,2S or 1R,2R or 1S,2R or 1R,2S)-2-((S)-4-tosyl-6-((((1,1,1-trifluoro-2-methylpropan-2-yl)oxy)carbonyl)amino)-3,4-dihydro-2H-benzo[b][1,4]oxazin-2-yl)cyclopropanecarboxylic acid]
75.7 nM | Cc1ccc(S(=O)(=O)N2C[C@H]([C@@H]3C[C@@H]3C(=O)O)Oc3ccc(NC(=O)OC(C)(C)C(F)(F)F)cc32)cc1 (single isomer, unassigned) [Example 22F, (1S,2S or 1R,2R or 1S,2R or 1R,2S)-2-((S)-4-tosyl-6-((((1,1,1-trifluoro-2-methylpropan-2-yl)oxy)carbonyl)amino)-3,4-dihydro-2H-benzo[b][1,4]oxazin-2-yl)cylcopropanecarboxylic acid]
34.2 nM | Cc1ccc(S(=O)(=O)N2C[C@H]([C@H]3C[C@@H]3C(=O)O)Oc3ccc(NC(=O)OC(C)(C)C(F)(F)F)cc32)cc1 (single isomer, unassigned) [Example 22G, (1S,2S or 1R,2R or 1S,2R or 1R,2S)-2-((S)-4-tosyl-6-((((1,1,1-trifluoro-2-methylpropan-2-yl)oxy)carbonyl)amino)-3,4-dihydro-2H-benzo[b][1,4]oxazin-2-yl)cyclopropanecarboxylic acid]
141 nM | Cc1ccc(S(=O)(=O)N2C[C@H]([C@@H]3C[C@H]3C(=O)O)Oc3ccc(NC(=O)OC(C)(C)C(F)(F)F)cc32)cc1 (single isomer, unassigned) [Example 22H, (1S,2S or 1R,2R or 1S,2R or 1R,2S)-2-((S)-4-tosyl-6-((((1,1,1-trifluoro-2-methylpropan-2-yl)oxy)carbonyl)amino)-3,4-dihydro-2H-benzo[b][1,4]oxazin-2-yl)cyclopropanecarboxylic acid]
13.5 nM | COc1cc(S(=O)(=O)N2C[C@H]([C@@H]3C[C@H]3C(=O)O)Oc3ccc(NC(=O)OC(C)(C)C(F)(F)F)cc32)ccc1F (single isomer, unassigned) [Example 22J, (1R,2S or 1R,2R or 1S,2S or 1S,2R)-2-((S)-4-((4-fluoro-3-methoxyphenyl)sulfonyl)-6-((((1,1,1-trifluoro-2-methylpropan-2-yl)oxy)carbonyl)amino)-3,4-dihydro-2H-benzo[b][1,4]oxazin-2-yl)cyclopropanecarboxylic acid]
8.71 nM | COc1cc(S(=O)(=O)N2C[C@H]([C@H]3C[C@H]3C(=O)O)Oc3ccc(NC(=O)OC(C)(C)C(F)(F)F)cc32)ccc1F (single isomer, unassigned) [Example 22M, (1R,2S or 1R,2R or 1S,2S or 1S,2R)-2-((S)-4-((4-fluoro-3-methoxyphenyl)sulfonyl)-6-((((1,1,1-trifluoro-2-methylpropan-2-yl)oxy)carbonyl)amino)-3,4-dihydro-2H-benzo[b][1,4]oxazin-2-yl)cyclopropanecarboxylic acid]
5.87 nM | COc1cc(S(=O)(=O)N2C[C@H]([C@@H]3C[C@@H]3C(=O)O)Oc3ccc(NC(=O)OC(C)(C)C(F)(F)F)cc32)ccc1F (single isomer, unassigned) [Example 22N, (1R,2S or 1R,2R or 1S,2S or 1S,2R)-2-((S)-4-((4-fluoro-3-methoxyphenyl)sulfonyl)-6-((((1,1,1-trifluoro-2-methylpropan-2-yl)oxy)carbonyl)amino)-3,4-dihydro-2H-benzo[b][1,4]oxazin-2-yl)cyclopropanecarboxylic acid]
22.4 nM | COc1cc(S(=O)(=O)N2C[C@H]([C@H]3C[C@@H]3C(=O)O)Oc3ccc(NC(=O)OC(C)(C)C(F)(F)F)cc32)ccc1F (single isomer, unassigned) [Example 22i, (1R,2S or 1R,2R or 1S,2S or 1S,2R)-2-((S)-4-((4-fluoro-3-methoxyphenyl)sulfonyl)-6-((((1,1,1-trifluoro-2-methylpropan-2-yl)oxy)carbonyl)amino)-3,4-dihydro-2H-benzo[b][1,4]oxazin-2-yl)cylcopropanecarboxylic acid]
3.8 nM | COc1cc(S(=O)(=O)N2C[C@H](CCC(=O)O)Oc3ccc(NC(=O)O[C@@H](C)C(C)(C)C)cc32)ccc1F (single isomer, unassigned) [Example 24C, 3-{(2S)-4-[(4-fluoro-3-methoxyphenyl)sulfonyl]-6-[({[(1S or 1R)-1,2,2-trimethylpropyl]oxy}carbonyl)amino]-3,4-dihydro-2H-1,4-benzoxazin-2-yl}propanoic acid]
3.73 nM | COc1cc(S(=O)(=O)N2C[C@H](CCC(=O)O)Oc3ccc(NC(=O)O[C@H](C)C(C)(C)C)cc32)ccc1F (single isomer, unassigned) [Example 24D, 3-{(2S)-4-[(4-fluoro-3-methoxyphenyl)sulfonyl]-6-[({[(1S or 1R)-1,2,2-trimethylpropyl]oxy}cxarbonyl)amino]-3,4-dihydro-2H-1,4-benzoxazin-2-yl}propanoic acid]
11.4 nM | CCn1cc(S(=O)(=O)N2C[C@H](CCC(=O)O)Oc3ccc(NC(=O)OC(C)(C)C(F)(F)F)cc32)c(OCCO)n1 (stereo in doubt) [Example 6CA, 3-(4-{[1-ethyl-3-(2-hydroxyethoxy)-1H-pyrazol-4-yl]sulfonyl}-6-{[(2,2,2-trifluoro-1,1-dimethylethoxy)carbonyl]amino}-3,4-dihydro-2H-1,4-benzoxazin-2-yl)propanoic acid]
